# “And” between values parts separate entries of the source, which are not always exact repeats. Equal entries are not always repeated. Marks after values point to notes of the source that are not given here.
# Assays:
# human GIPR = target: T1, human GIPR (Homo sapiens, UniProt P48546); assay: Agonist activity on human GIPR, CRE-luciferase reporter assay (increase in intracellular cAMP as indicator); type: cell-based; settings: GLP1R EC50 / GIPR EC50
# T1 construct: expressed in transfected cells
# T1 sequence (P48546 22-466): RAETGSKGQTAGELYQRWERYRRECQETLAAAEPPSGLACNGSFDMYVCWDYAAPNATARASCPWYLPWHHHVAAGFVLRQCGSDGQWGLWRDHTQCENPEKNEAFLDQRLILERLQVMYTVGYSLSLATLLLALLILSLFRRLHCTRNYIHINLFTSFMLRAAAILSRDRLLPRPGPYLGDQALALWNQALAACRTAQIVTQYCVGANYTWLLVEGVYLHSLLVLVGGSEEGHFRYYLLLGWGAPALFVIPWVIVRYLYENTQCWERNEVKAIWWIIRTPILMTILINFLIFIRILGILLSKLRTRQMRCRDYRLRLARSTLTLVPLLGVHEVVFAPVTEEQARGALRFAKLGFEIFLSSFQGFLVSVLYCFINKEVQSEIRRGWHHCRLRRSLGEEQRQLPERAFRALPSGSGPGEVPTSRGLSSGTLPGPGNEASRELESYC
# Description: The human GIPR gene having an identical sequence to Genebank Accession No. U39231 is cloned into a pMSRα-neo vector to prepare hGIPR/pMSRα-neo.
# (2) Construction of Reporter Plasmid Expressing Cell
# Luciferase reporter gene with a cAMP-responsive sequence located upstream is transferred to a CHO-K1 cell to construct a CRE-LUC/CHO-K1 cell.
# (4) Transfer of Human GIPR Gene to CRE-LUC/CHO-K1 Cell and Obtaining of Expressing Cell
# The plasmid hGIPR/pMSRα-neo obtained in (1) is transferred to the CRE-LUC/CHO-K1 cell obtained in (2) to obtain a transformant. Subsequently, the cell line inducing the luciferase expression, hGIPR/CRE-LUC/CHO-K1 cell, is selected from the obtained transformant by adding GIP.
# 25 μL each of the hGIPR/CRE-LUC/CHO-K1 cell is inoculated in a 384-well white plate (Corning) in such a way as to provide 5×10^3 cells/well and may be cultured in a HamF12 medium containing 10% fetal bovine serum, 100 U/mL penicillin, and 100 μg/mL streptomycin in a CO2 incubator at 37° C. overnight. 5 μL of a medium containing a test compound is added to the cells and incubated for 4 hours at the indicated concentration in a CO2 incubator at 37° C. Steady-Glo (Promega) is added in amounts of 30 μL and shaken under light shielding. Twenty minutes later, luciferase activity is measured using a plate reader Envision (PerkinElmer). The GIPR agonist activity is calculated with increase in intracellular cAMP concentration as the indicator when the luciferase activity in the presence of 10 nM of GIP was 100% and the luciferase activity in the case of adding DMSO instead of the test compound was 0%.
# [1] = system: morphine (0.6 mg/kg, s.c.)-induced emesis in ferrets; assay: Morphine-induced acute emetic model in male ferrets; type: in vivo, ferret; settings: for Emesis: Latency / Fidget: Latency / Licking: Latency / Retching: Latency / Vomiting: Latency: non-responders counted as 30 min; for Comment: Anti-Emetic Activity (inhibition) on morphine-induced emesis: summary of the morphine experiments
# Method: Example 6—In-Vivo Effect of GIP Receptor Agonist Peptides on Emesis in Morphine Induced Emesis Model in Live Male Ferrets
# Effect of subcutaneously administered GIP receptor agonist peptide in morphine-induced acute emetic model.
# To evaluate the antiemetic effect, the GIP receptor agonist peptides other than natural human GIP were subcutaneously administered into male ferrets 30 minutes before morphine administration. […]. Up to 60 minutes after morphine administration, the condition of the ferrets was monitored to record the frequencies and time points of abdominal contraction motions, vomiting behaviors, licking with the tongue, and fidgety behavior occurring
# Effects of Subcutaneously Administered GIP Receptor Agonist Peptides in Morphine-Induced Acute Emetic Model
# 30 nmol/kg of Compounds 3 and 5 were dissolved with a vehicle (0.09 w/v % tween 80/10% DMSO/saline), respectively, to prepare test solutions. […] of the test solutions and the vehicle were subcutaneously administered to ferrets (4 in each group), respectively. At the time of each of 4 hours, after administration, 0.6 mg/kg of morphine was subcutaneously administered. […] See results in Tables 6, 7 and 8.
# (§1) 10 nmol/kg of each compound dissolved with a vehicle (0.09 w/v % tween 80/10% DMSO/saline) respectively, to prepare test solutions. […] of the test solutions and the vehicle were subcutaneously administered to ferrets (4 in each group), respectively. At the time of each of 4 hours, or 120 hours after administration, 0.6 mg/kg of morphine was subcutaneously administered. Up to 360 minutes after morphine administration, the condition of the ferrets was monitored to record the frequencies and time points of abdominal contraction motions, vomiting behaviors, licking with the tongue, and fidgety behavior occurring.
# as §1, with “30 nmol/kg” for “10 nmol/kg”, “80/10% DMSO/saline),respectively,” for “80/10% DMSO/saline) respectively,”
# [2] = ferrets, morphine 0.6 mg/kg s.c. 0.5 h after drug, 106-[…] s.c. (30 nmol/kg)
# [3] = ferrets, 10 nmol/kg s.c., morphine administered 4 h after, cumulative total duration, individual animals and Mean
# [4] = ferrets, 10 nmol/kg s.c., morphine administered 4 h after, individual animals and Mean
# [5] = ferrets, 10 nmol/kg s.c., morphine administered 4 h after, individual animals and Mean, no emetic response = 30 min
# [6] = ferrets, 10 nmol/kg s.c., morphine administered 4 h after, individual animals and Mean, no response = 30 min
# [7] = ferrets, morphine 0.6 mg/kg s.c. 4 h after drug, 10 nmol/kg s.c.
# [8] = male ferrets, 30 nmol/kg s.c., morphine 0.6 mg/kg s.c. 4 hours after administration
molecule,measurement,setting,value
CC[C@H](C)[C@H](NC(=O)[C@H](CO)NC(=O)[C@H](Cc1ccc(O)cc1)NC(=O)[C@H](CC(=O)O)NC(=O)[C@H](CO)NC(=O)[C@@H](NC(=O)[C@H](Cc1ccccc1)NC(=O)[C@@H](NC(=O)CNC(=O)[C@H](CCC(=O)O)NC(=O)[C@H](C)NC(=O)[C@H](Cc1ccc(O)cc1)NC(C)=O)[C@@H](C)O)[C@@H](C)CC)C(=O)N[C@@H](C)C(=O)N[C@@H](CCSC)C(=O)N[C@@H](CC(=O)O)C(=O)N[C@@H](CCCCN)C(=O)N[C@H](C(=O)N[C@@H](Cc1c[nH]cn1)C(=O)N[C@@H](CCC(N)=O)C(=O)N[C@@H](CCC(N)=O)C(=O)N[C@@H](CC(=O)O)C(=O)N[C@@H](Cc1ccccc1)C(=O)N[C@H](C(=O)N[C@@H](CC(N)=O)C(=O)N[C@@H](Cc1c[nH]c2ccccc12)C(=O)N[C@@H](CC(C)C)C(=O)N[C@@H](CC(C)C)C(=O)N[C@@H](C)C(=O)N[C@@H](CCC(N)=O)C(=O)N[C@@H](CCCCN)C(=O)NCC(=O)N[C@@H](CCCCN)C(=O)N[C@@H](CCCCN)C(=O)N[C@@H](CC(N)=O)C(=O)N[C@@H](CC(=O)O)C(=O)N[C@@H](Cc1c[nH]c2ccccc12)C(=O)N[C@@H](CCCCN)C(=O)N[C@@H](Cc1c[nH]cn1)C(=O)N[C@@H](CC(N)=O)C(=O)N[C@H](C(=O)N[C@H](C(=O)N[C@@H](CCC(N)=O)C(=O)O)[C@@H](C)CC)[C@@H](C)CC)C(C)C)[C@@H](C)CC [Compound 1],Selectivity Ratio (B/A),human GIPR,"30,200"
same,Emesis: Duration,[1]; [2],0.0 ± 0.0 min
same,Emesis: Frequency,[1]; [2],0.0 ± 0.0
same,Emesis: No. of animals (responder/used),[1]; [2],0/4 #
same,Fidget: Duration,[1]; [2],0.0 ± 0.0 min
same,Fidget: Frequency,[1]; [2],0.0 ± 0.0
same,Fidget: No. of animals (responder/used),[1]; [2],0/4
same,Licking: Duration,[1]; [2],0.0 ± 0.0 min
same,Licking: Frequency,[1]; [2],0.0 ± 0.0
same,Licking: No. of animals (responder/used),[1]; [2],0/4 #
same,Retching: Duration,[1]; [2],0.0 ± 0.0 min
same,Retching: Frequency,[1]; [2],0.0 ± 0.0
same,Retching: No. of animals (responder/used),[1]; [2],0/4 #
same,Vomiting: Duration,[1]; [2],0.0 ± 0.0 min
same,Vomiting: Frequency,[1]; [2],0.0 ± 0.0
same,Vomiting: No. of animals (responder/used),[1]; [2],0/4
same,Emesis: Latency,[1]; [2],30.0 ± 0.0 min
same,Fidget: Latency,[1]; [2],30.0 ± 0.0 min
same,Licking: Latency,[1]; [2],30.0 ± 0.0 min
same,Retching: Latency,[1]; [2],30.0 ± 0.0 min
same,Vomiting: Latency,[1]; [2],30.0 ± 0.0 min
same,Attenuation of morphine-induced emesis (in words),"[1]; male ferrets, 30 nmol/kg s.c. 30 minutes before morphine 0.6 mg/kg s.c.",completely attenuated
same,Comment: Anti-Emetic Activity (inhibition) on morphine-induced emesis,[1]; male ferrets,100% inhibition
YAibEGTFISDYSIELDK(Lys-(ethylene glycol)2-C15 diacid)AAQAFIEWLLAQGPSSGAPPPS-NH2 [Compound 20],Selectivity Ratio (B/A),human GIPR,">100,000"
same,Retching Latency,"[1]; ferrets, 10 nmol/kg s.c., morphine (0.6 mg/kg, s.c.) administered 4 h after, individual animals and Mean, no emetic response = 30 min",30 min
same,Emesis (Retching + Vomiting) Duration,[1]; [3],0 min (4×) and 0.0 min
same,Retching Duration,[1]; [3],0 min
same,Vomiting Duration,[1]; [3],0 min
same,Fidget Duration,[1]; [4],0 min (4×) and 0.0 min
same,Licking Duration,[1]; [4],0 min (4×) and 0.0 min
same,Retching Frequency,[1]; [4],0
same,Vomiting Frequency,[1]; [4],0
same,Emesis (Retching + Vomiting) Latency,[1]; [5],30 min
same,Vomiting Latency,[1]; [5],30 min
same,Fidget Latency,[1]; [6],30 min (4×) and 30.0 min
same,Licking Latency,[1]; [6],30 min (4×) and 30.0 min
same,Emesis: Duration,[1]; [7],0.0 ± 0.0 min
same,Emesis: Frequency,[1]; [7],0.0 ± 0.0
same,Emesis: No. of animals (responder/used),[1]; [7],0/4 #
same,Fidget: Duration,[1]; [7],0.0 ± 0.0^ min
same,Fidget: Frequency,[1]; [7],0.0 ± 0.0
same,Fidget: No. of animals (responder/used),[1]; [7],0/4 #
same,Licking: Duration,[1]; [7],0.0 ± 0.0^ min
same,Licking: Frequency,[1]; [7],0.0 ± 0.0
same,Licking: No. of animals (responder/used),[1]; [7],0/4 #
same,Retching: Duration,[1]; [7],0.0 ± 0.0 min
same,Retching: Frequency,[1]; [7],0.0 ± 0.0
same,Retching: No. of animals (responder/used),[1]; [7],0/4 #
same,Vomiting: Duration,[1]; [7],0.0 ± 0.0 min
same,Vomiting: Frequency,[1]; [7],0.0 ± 0.0
same,Vomiting: No. of animals (responder/used),[1]; [7],0/4 #
same,Emesis: Latency,[1]; [7],30.0 ± 0.0 min
same,Fidget: Latency,[1]; [7],30.0 ± 0.0 min
same,Licking: Latency,[1]; [7],30.0 ± 0.0 min
same,Retching: Latency,[1]; [7],30.0 ± 0.0 min
same,Vomiting: Latency,[1]; [7],30.0 ± 0.0 min
same,Comment: Anti-Emetic Activity (inhibition) on morphine-induced emesis,[1]; male ferrets,100% inhibition
CCCCCCCCCCCCCCCC(=O)NCCCC[C@H](NC(=O)[C@H](CC(=O)O)NC(=O)[C@H](CCSC)NC(=O)[C@H](C)NC(=O)[C@@H](NC(=O)[C@H](CO)NC(=O)[C@H](Cc1ccc(O)cc1)NC(=O)[C@H](CC(=O)O)NC(=O)[C@H](CO)NC(=O)[C@@H](NC(=O)[C@H](Cc1ccccc1)NC(=O)[C@@H](NC(=O)CNC(=O)[C@H](CCC(=O)O)NC(=O)[C@H](C)NC(=O)[C@@H](N)Cc1ccc(O)cc1)[C@@H](C)O)[C@@H](C)CC)[C@@H](C)CC)C(=O)N[C@H](C(=O)N[C@@H](Cc1c[nH]cn1)C(=O)N[C@@H](CCC(N)=O)C(=O)N[C@@H](CCC(N)=O)C(=O)N[C@@H](CC(=O)O)C(=O)N[C@@H](Cc1ccccc1)C(=O)N[C@H](C(=O)N[C@@H](CC(N)=O)C(=O)N[C@@H](Cc1c[nH]c2ccccc12)C(=O)N[C@@H](CC(C)C)C(=O)N[C@@H](CC(C)C)C(=O)N[C@@H](C)C(=O)N[C@@H](CCC(N)=O)C(=O)N[C@@H](CCCCN)C(=O)NCC(=O)N[C@@H](CCCCN)C(=O)N[C@@H](CCCCN)C(=O)N[C@@H](CC(N)=O)C(=O)N[C@@H](CC(=O)O)C(=O)N[C@@H](Cc1c[nH]c2ccccc12)C(=O)N[C@@H](CCCCN)C(=O)N[C@@H](Cc1c[nH]cn1)C(=O)N[C@@H](CC(N)=O)C(=O)N[C@H](C(=O)N[C@H](C(=O)N[C@@H](CCC(N)=O)C(N)=O)[C@@H](C)CC)[C@@H](C)CC)C(C)C)[C@@H](C)CC [Compound 3],Selectivity Ratio (B/A),human GIPR,447
same,Ferrets in which the vomiting symptom was observed (in words),"[1]; ferrets, morphine administered 4 hours after administration",all of the 4 ferrets
same,Duration of emesis,[1]; [8],5.5 ± 7.1 min
same,Emetic episodes,[1]; [8],21.8 ± 19.2
same,Latency period,[1]; [8],7.0 ± 2.9 min
same,No. of animals that did not vomit,[1]; [8],0
same,"Emetic episodes, % Inhibition of mean value","[1]; male ferrets, 30 nmol/kg s.c., morphine 0.6 mg/kg s.c. 4 hours after administration, vs vehicle",[−143%]
same,Comment: Anti-Emetic Activity (inhibition) on morphine-induced emesis,[1]; male ferrets,partial inhibition
